Patent US20240279237A1, “FUSED BICYCLIC HETEROARYL COMPOUNDS USEFUL AS NLRP3 INHIBITORS” (Hoffmann-La Roche Inc., priority 2021, published 2024)

What follows are compounds tested against T1, NLRP3 (Homo sapiens, UniProt Q96P20) (assay: THP-1 Cells Pyroptosis Assay). Conditions: THP-1 cells with 1.0 μg/ml LPS; compound 3 hours; nigericin 5 μM 1 hr; resazurin readout.
T1 construct: Seed THP-1 cells (25,000 cells/well) containing 1.0 μg/ml LPS in 40 μl of RPMI medium; host or cells: THP-1 cells
Type: cell-based
In short: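 THP-1 cells in serum-free RPMI primed with LPS (1 μg/ml FAC), incubated with compound 3 h at 37 °C, then nigericin (5 μM FAC) for 1 h. Supernatant removed after spin; viability read by resazurin (100 μM FAC) reduction after a further 1-2 h at 37 °C.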

T1 sequence (Q96P20 whole entry): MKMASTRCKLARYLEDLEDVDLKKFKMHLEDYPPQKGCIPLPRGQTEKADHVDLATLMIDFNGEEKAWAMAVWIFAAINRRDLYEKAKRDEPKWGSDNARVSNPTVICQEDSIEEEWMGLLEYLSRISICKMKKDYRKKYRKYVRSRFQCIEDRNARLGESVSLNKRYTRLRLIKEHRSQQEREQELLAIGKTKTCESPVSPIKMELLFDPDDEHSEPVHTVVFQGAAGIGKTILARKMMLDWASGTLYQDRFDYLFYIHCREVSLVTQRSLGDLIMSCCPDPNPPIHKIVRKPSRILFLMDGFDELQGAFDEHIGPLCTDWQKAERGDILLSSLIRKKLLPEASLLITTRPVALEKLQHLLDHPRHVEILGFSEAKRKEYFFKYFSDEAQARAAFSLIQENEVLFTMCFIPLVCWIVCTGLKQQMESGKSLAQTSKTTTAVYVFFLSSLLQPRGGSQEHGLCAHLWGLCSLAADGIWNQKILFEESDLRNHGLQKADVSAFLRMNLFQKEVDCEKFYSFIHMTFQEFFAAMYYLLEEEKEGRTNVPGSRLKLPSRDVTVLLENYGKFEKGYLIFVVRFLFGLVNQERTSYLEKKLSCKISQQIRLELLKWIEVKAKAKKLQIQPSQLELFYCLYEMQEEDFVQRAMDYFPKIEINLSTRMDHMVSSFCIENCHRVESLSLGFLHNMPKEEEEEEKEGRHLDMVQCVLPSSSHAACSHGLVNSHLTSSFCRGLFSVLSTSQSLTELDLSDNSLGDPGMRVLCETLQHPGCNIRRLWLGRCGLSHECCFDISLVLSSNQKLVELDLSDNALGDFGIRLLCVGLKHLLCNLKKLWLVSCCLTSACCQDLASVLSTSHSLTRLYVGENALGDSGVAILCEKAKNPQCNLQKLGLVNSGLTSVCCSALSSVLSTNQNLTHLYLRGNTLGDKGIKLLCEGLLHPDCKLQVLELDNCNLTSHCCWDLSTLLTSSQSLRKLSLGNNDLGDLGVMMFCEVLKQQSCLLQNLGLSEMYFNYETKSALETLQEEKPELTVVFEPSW

Row | Compound | IC50 [nM]
1 | CCN1CCC[C@@H](Nc2nc3nc(-c4c(C)cc(C(F)(F)F)cc4O)cc(OC)c3o2)C1 [Example 104, 2-[2-[[(3R)-1-Ethyl-3-piperidyl]amino]-7-methoxy-oxazolo[4,5-b]pyridin-5-yl]-3-methyl-5-(trifluoromethyl)phenol] | 1.9
2 | CCN1C[C@@H](O)C[C@@H](Nc2nc3nc(-c4c(C)cc(Cl)cc4O)ccc3o2)C1 [Example 134, (3S,5R)-5-[[5-(4-Chloro-2-hydroxy-6-methyl-phenyl)oxazolo[4,5-b]pyridin-2-yl]amino]-1-ethyl-piperidin-3-ol] | 1.9
3 | Cc1cc(C#N)cc(O)c1-c1ccc2oc(N[C@@H]3CCCN(C)C3)nc2n1 [Example 26, 3-Hydroxy-5-methyl-4-[2-[[(3R)-1-methyl-3-piperidyl]amino]oxazolo[4,5-b]pyridin-5-yl]benzonitrile] | 2.8
4 | CCN1C[C@@H](O)C[C@@H](Nc2nc3nc(-c4c(C)cc(C)cc4O)ccc3o2)C1 [Example 70] | 3.8
5 | CC(=O)c1cc(-c2c(C)cc(C(F)(F)F)cc2O)nc2nc(N[C@@H]3CCCN(C)C3)oc12 [Example 102, 1-[5-[2-Hydroxy-6-methyl-4-(trifluoromethyl)phenyl]-2-[[(3R)-1-methyl-3-piperidyl]amino]oxazolo[4,5-b]pyridin-7-yl]ethanone;2,2,2-trifluoroacetic acid] | 6.5
6 | 2-[2-[[(3S or 3R)-1-Ethyl-3-piperidyl]amino]-1H-imidazo[4,5-b]pyridin-5-yl]-3-methyl-5-(trifluoromethyl)phenol [Example 18B] | 392
7 | COC(=O)CCCN1CCC[C@@H](Nc2nc3nc(-c4c(C)cc(Cl)cc4O)ccc3o2)C1 [Example 84, Methyl 4-[(3R)-3-[[5-(4-chloro-2-hydroxy-6-methyl-phenyl)oxazolo[4,5-b]pyridin-2-yl]amino]-1-piperidyl]butanoate] | 0.8
8 | Cc1cc(C(F)(F)F)cc(O)c1-c1ccc2oc(N3CC[C@@H]4CCN(C)C[C@@H]43)nc2n1 (single isomer, unassigned) [Example 37A, 2-[2-[(3aS,7aR)-6-Methyl-3,3a,4,5,7,7a-hexahydro-2H-pyrrolo[2,3-c]pyridin-1-yl]oxazolo[4,5-b]pyridin-5-yl]-3-methyl-5-(trifluoromethyl)phenol or 2-[2-[(3aR,7aS)-6-methyl-3,3a,4,5,7,7a-hexahydro-2H-pyrrolo[2,3-c]pyridin-1-yl]oxazolo[4,5-b]pyridin-5-yl]-3-methyl-5-(trifluoromethyl)phenol] | 216
9 | Cc1cc(Cl)cc(O)c1-c1cc(N2CCCC2=O)c2oc(N[C@@H]3CCCN(C)C3)nc2n1 (racemic) [Example 60, 1-[5-(4-Chloro-2-hydroxy-6-methyl-phenyl)-2-[[rac-(3R)-1-methyl-3-piperidyl]amino]oxazolo[4,5-b]pyridin-7-yl]pyrrolidin-2-one] | 17.9
10 | Cc1cc(C#N)cc(O)c1-c1ccc2oc(N[C@@H]3C[C@H](O)CN(C)C3)nc2n1 [Example 56, 3-Hydroxy-4-[2-[[(3R,5S)-5-hydroxy-1-methyl-3-piperidyl]amino]oxazolo[4,5-b]pyridin-5-yl]-5-methyl-benzonitrile] | 18.9
11 | COc1cc(C)c(-c2ccc3oc(N[C@@H]4CCCN(C)C4)nc3n2)c(O)c1 [Example 34, 5-Methoxy-3-methyl-2-[2-[[(3R)-1-methyl-3-piperidyl]amino]oxazolo[4,5-b]pyridin-5-yl]phenol] | 18.9
12 | Cc1cc(C(F)(F)F)cc(O)c1-c1ccc2oc(N3CCOCC3)nc2n1 [Example 4, 3-Methyl-2-(2-morpholinooxazolo[4,5-b]pyridin-5-yl)-5-(trifluoromethyl)phenol] | 29.4
13 | 3-Methyl-2-[2-[[(2S)-1-methylazetidin-2-yl]methylamino]oxazolo[4,5-b]pyridin-5-yl]-5-(trifluoromethyl)phenol or 3-methyl-2-[2-[[(2R)-1-methylazetidin-2-yl]methylamino]oxazolo[4,5-b]pyridin-5-yl]-5-(trifluoromethyl)phenol [Example 66B] | 256
